Measured values published in US7241782B1, “Polymorph V of torasemide” (PLIVA, farmaceutska industrija, dionicko drustvo, priority 2000, dated 2007).

Experiments:
[1] = Release of the active substance in water (USP 24); type: physicochemical; conditions: for Released torasemide: water, USP 24, 37° C., 50 rpm, 1000 ml
Description: This makes the novel polymorph V of torasemide suitable for the preparation of pharmaceutical preparations having immediate or prolonged action. The novel polymorph V of torasemide obtained according to Example 1 of the present invention was subjected to testing the release of the active substance in water at the temperature of 37° C. [table]

[2] = Stability at milling and pressing under normal storage conditions; type: physicochemical

Compound: Cc1cccc(Nc2ccncc2S(=O)(=O)NC(=O)NC(C)C)c1 [novel polymorph V of torasemide, N-(1-methylethylaminocarbonyl)-4-(3-methyl-phenylamino)-3-pyridinesulfonamide]
- Release in comparison with the release profile of known crystalline torasemide modifications ([1]; in water (USP 24), same medium): slower release
- Released torasemide ([1]; time 0 min): 0%
- Released torasemide ([1]; time 15 min): 11.3%
- Released torasemide ([1]; time 30 min): 20.5%
- Released torasemide ([1]; time 45 min): 26.0%
- Released torasemide ([1]; time 60 min): 30.0%
- Released torasemide ([1]; time 90 min): 36.0%
- Released torasemide ([1]; time 120 min): 40.7%
- Stability of the crystal form (no transformation into modifications I, II, III or amorphous) [2]: stable at milling and pressing
